Measured values: paper PMC5218480 (PLoS ONE, 2017)

System: MV-4-11 cells
Test: Gene expression microarray analysis (Affymetrix PrimeView) and GSEA
Type: cell-based, human
Design: RFU PODN (11730768_x_at) / Fold change /veh PODN (11730768_x_at) / RFU LINC00158 (11744669_a_at) / Fold change /veh LINC00158 (11744669_a_at) / RFU DUSP10 (11751237_a_at) / Fold change /veh DUSP10 (11751237_a_at) / RFU ID3 (11757404_x_at) / Fold change /veh ID3 (11757404_x_at) / RFU PLEKHG5 (11737974_s_at) / Fold change /veh PLEKHG5 (11737974_s_at) / RFU LRRC4B (11730491_at) / Fold change /veh LRRC4B (11730491_at) / RFU GIMAP4 (11747438_a_at) / Fold change /veh GIMAP4 (11747438_a_at) / RFU KRT8 (11758183_x_at) / Fold change /veh KRT8 (11758183_x_at) / RFU CNN1 (11734310_a_at) / Fold change /veh CNN1 (11734310_a_at) / RFU VPS37D (11726825_at) / Fold change /veh VPS37D (11726825_at) / RFU C10orf10 (11716522_x_at) / Fold change /veh C10orf10 (11716522_x_at) / RFU KIR2DL2 /// KIR2DL4 /// KIR2DL5A /// KIR2DL5B /// KIR2DS1 /// KIR2DS2 /// KIR2DS3 /// KIR2DS4 /// KIR3DL3 /// KIR3DL3 /// KIR3DS1 (11738374_at) / Fold change /veh KIR2DL2 /// KIR2DL4 /// KIR2DL5A /// KIR2DL5B /// KIR2DS1 /// KIR2DS2 /// KIR2DS3 /// KIR2DS4 /// KIR3DL3 /// KIR3DL3 /// KIR3DS1 (11738374_at) / RFU C1QL1 (11718748_at) / Fold change /veh C1QL1 (11718748_at) / RFU TMPRSS4 (11747572_a_at) / Fold change /veh TMPRSS4 (11747572_a_at) / RFU HAMP (11756126_x_at) / Fold change /veh HAMP (11756126_x_at) / RFU RNFT2 (11725882_a_at) / Fold change /veh RNFT2 (11725882_a_at) / RFU NR4A2 (11747474_a_at) / Fold change /veh NR4A2 (11747474_a_at) / RFU ABCC12 (11746883_a_at) / Fold change /veh ABCC12 (11746883_a_at) / RFU TMEM136 (11760407_x_at) / Fold change /veh TMEM136 (11760407_x_at) / RFU CLDN22 /// WWC2 (11732394_at) / Fold change /veh CLDN22 /// WWC2 (11732394_at) / RFU HLA-DPB1 (11760878_x_at) / Fold change /veh HLA-DPB1 (11760878_x_at) / RFU SPINT1 (11716480_a_at) / Fold change /veh SPINT1 (11716480_a_at) / RFU GAP43 (11754022_s_at) / Fold change /veh GAP43 (11754022_s_at) / RFU A4GNT (11735810_at) / Fold change /veh A4GNT (11735810_at) / RFU PRB3 (11715151_x_at) / Fold change /veh PRB3 (11715151_x_at) / RFU TUBB4B (11761932_at) / Fold change /veh TUBB4B (11761932_at) / RFU CAPN14 (11732068_a_at) / Fold change /veh CAPN14 (11732068_a_at) / RFU TMCC2 (11721928_a_at) / Fold change /veh TMCC2 (11721928_a_at) / RFU IRGQ (11745062_a_at) / Fold change /veh IRGQ (11745062_a_at) / RFU FAM174B (11720279_a_at) / Fold change /veh FAM174B (11720279_a_at) / RFU TMPRSS4 (11748680_a_at) / Fold change /veh TMPRSS4 (11748680_a_at) / RFU FAM212B (11763350_a_at) / Fold change /veh FAM212B (11763350_a_at) / RFU PLEKHG5 (11743358_a_at) / Fold change /veh PLEKHG5 (11743358_a_at) / RFU ZSCAN30 (11745921_a_at) / Fold change /veh ZSCAN30 (11745921_a_at) / RFU CMKLR1 (11741424_a_at) / Fold change /veh CMKLR1 (11741424_a_at) / RFU LOC101060620 /// MAPK8IP1 (11723275_at) / Fold change /veh LOC101060620 /// MAPK8IP1 (11723275_at) / RFU SPTSSB (11747773_x_at) / Fold change /veh SPTSSB (11747773_x_at) / RFU PRSS12 (11739890_at) / Fold change /veh PRSS12 (11739890_at) / RFU BIN1 (11741810_x_at) / Fold change /veh BIN1 (11741810_x_at) / RFU WNT11 (11732464_a_at) / Fold change /veh WNT11 (11732464_a_at) / RFU C10orf10 (11716521_a_at) / Fold change /veh C10orf10 (11716521_a_at) / RFU C5orf56 (11738089_at) / Fold change /veh C5orf56 (11738089_at) / RFU CYB561 (11721691_x_at) / Fold change /veh CYB561 (11721691_x_at) / RFU ANKRD19P (11752326_a_at) / Fold change /veh ANKRD19P (11752326_a_at) / RFU OR2T12 /// OR2T33 /// OR2T8 (11738714_s_at) / Fold change /veh OR2T12 /// OR2T33 /// OR2T8 (11738714_s_at) / RFU VCAN (11748164_a_at) / Fold change /veh VCAN (11748164_a_at) / RFU JSRP1 (11732532_at) / Fold change /veh JSRP1 (11732532_at) / RFU KRTAP10-11 (11738290_x_at) / Fold change /veh KRTAP10-11 (11738290_x_at) / RFU MYO3A (11730013_a_at) / Fold change /veh MYO3A (11730013_a_at) / RFU EBF3 (11725865_a_at) / Fold change /veh EBF3 (11725865_a_at) / RFU CAMK2N1 (11719241_x_at) / Fold change /veh CAMK2N1 (11719241_x_at) / RFU C5orf56 (11738088_a_at) / Fold change /veh C5orf56 (11738088_a_at) / RFU OLFML3 (11715873_a_at) / Fold change /veh OLFML3 (11715873_a_at) / RFU LOC100653217 /// NTM (11731650_a_at) / Fold change /veh LOC100653217 /// NTM (11731650_a_at) / RFU MAPK11 (11762145_a_at) / Fold change /veh MAPK11 (11762145_a_at) / RFU FIZ1 (11724087_x_at) / Fold change /veh FIZ1 (11724087_x_at) / RFU OASL (11726364_x_at) / Fold change /veh OASL (11726364_x_at) / RFU SOX15 (11748057_x_at) / Fold change /veh SOX15 (11748057_x_at) / RFU CD79A (11719716_a_at) / Fold change /veh CD79A (11719716_a_at) / RFU HIST1H1D (11736915_at) / Fold change /veh HIST1H1D (11736915_at) / RFU CASKIN2 (11723855_a_at) / Fold change /veh CASKIN2 (11723855_a_at) / RFU LOC730098 (11760151_x_at) / Fold change /veh LOC730098 (11760151_x_at) / RFU OR4N2 (11742367_at) / Fold change /veh OR4N2 (11742367_at) / RFU PRRT2 (11749266_a_at) / Fold change /veh PRRT2 (11749266_a_at) / RFU SNX32 (11753110_a_at) / Fold change /veh SNX32 (11753110_a_at) / RFU CDHR5 (11726645_a_at) / Fold change /veh CDHR5 (11726645_a_at) / RFU RCAN1 (11760418_a_at) / Fold change /veh RCAN1 (11760418_a_at) / RFU FAM167A (11723789_a_at) / Fold change /veh FAM167A (11723789_a_at) / RFU FAM26E (11764081_at) / Fold change /veh FAM26E (11764081_at) / RFU ISYNA1 (11749810_s_at) / Fold change /veh ISYNA1 (11749810_s_at) / RFU ACY1 (11761880_at) / Fold change /veh ACY1 (11761880_at) / RFU 11764098_at / Fold change /veh 11764098_at / RFU SAMD14 (11745864_x_at) / Fold change /veh SAMD14 (11745864_x_at) / RFU NPB (11741838_a_at) / Fold change /veh NPB (11741838_a_at) / RFU TMPRSS6 (11731388_a_at) / Fold change /veh TMPRSS6 (11731388_a_at) / RFU KRTAP10-2 (11738614_at) / Fold change /veh KRTAP10-2 (11738614_at) / RFU ARHGAP8 /// PRR5-ARHGAP8 (11727945_x_at) / Fold change /veh ARHGAP8 /// PRR5-ARHGAP8 (11727945_x_at) / RFU KRTAP5-7 /// NADSYN1 (11734609_at) / Fold change /veh KRTAP5-7 /// NADSYN1 (11734609_at) / RFU RASL12 (11751679_a_at) / Fold change /veh RASL12 (11751679_a_at) / RFU CDKN2B (11736163_a_at) / Fold change /veh CDKN2B (11736163_a_at) / RFU PRF1 (11729649_at) / Fold change /veh PRF1 (11729649_at) / RFU, ZNF638 /// ZNF638-IT1 / Fold change vs veh, ZNF638 /// ZNF638-IT1 / RFU, PANK3 / Fold change vs veh, PANK3 / RFU, SH3YL1 / Fold change vs veh, SH3YL1 / RFU, ZEB2 / Fold change vs veh, ZEB2 / RFU, NRIP1 / Fold change vs veh, NRIP1 / RFU, PTTG1IP / Fold change vs veh, PTTG1IP / RFU, CAPN2 / Fold change vs veh, CAPN2 / RFU, MED14 / Fold change vs veh, MED14 / RFU, SNORA58 / Fold change vs veh, SNORA58 / RFU, C1orf63 / Fold change vs veh, C1orf63 / RFU, LRRFIP1 / Fold change vs veh, LRRFIP1 / RFU, NDUFAF7 / Fold change vs veh, NDUFAF7 / RFU, SLC12A2 / Fold change vs veh, SLC12A2 / RFU, IBTK / Fold change vs veh, IBTK / RFU, ESF1 / Fold change vs veh, ESF1 / Fold change vs veh, TMEM50B / RFU, TAOK1 / Fold change vs veh, TAOK1 / RFU, ACBD3 / Fold change vs veh, ACBD3 / RFU, TMA16 / Fold change vs veh, TMA16 / RFU, RWDD3 / Fold change vs veh, RWDD3 / RFU, BCAT1 / Fold change vs veh, BCAT1 / RFU, EDEM3 / Fold change vs veh, EDEM3 / RFU, TMEM33 / Fold change vs veh, TMEM33 / RFU, WDR75 / Fold change vs veh, WDR75 / RFU, AHCTF1 / Fold change vs veh, AHCTF1 / RFU, TFRC / Fold change vs veh, TFRC / RFU, ZDHHC17 / Fold change vs veh, ZDHHC17 / RFU, NOM1 / Fold change vs veh, NOM1 / RFU, ARL8B / Fold change vs veh, ARL8B / RFU, ZBTB11 / Fold change vs veh, ZBTB11 / RFU, TAMM41 / Fold change vs veh, TAMM41 / RFU, KIAA1704 /// LOC100996395 / Fold change vs veh, KIAA1704 /// LOC100996395 / RFU, ING1 / Fold change vs veh, ING1 / RFU, TRMT61B / Fold change vs veh, TRMT61B / RFU, FUBP3 / Fold change vs veh, FUBP3 / RFU, TP53 / Fold change vs veh, TP53 / RFU, TNKS2 / Fold change vs veh, TNKS2 / RFU, ZFP14 / Fold change vs veh, ZFP14 / RFU, ACTR2 / Fold change vs veh, ACTR2 / RFU, PPP3R1 / Fold change vs veh, PPP3R1 / RFU, PIK3R1 / Fold change vs veh, PIK3R1 / RFU, HNRNPA1 / Fold change vs veh, HNRNPA1 / RFU, RNF170 / Fold change vs veh, RNF170 / RFU, ZNF28 / Fold change vs veh, ZNF28 / RFU, RNGTT / Fold change vs veh, RNGTT / RFU, OGT / Fold change vs veh, OGT / RFU, BRD1 / Fold change vs veh, BRD1 / RFU, MARS / Fold change vs veh, MARS / RFU, ZNF655 / Fold change vs veh, ZNF655 / RFU, FAHD1 / Fold change vs veh, FAHD1 / RFU, BDP1 / Fold change vs veh, BDP1 / RFU, LRRCC1 / Fold change vs veh, LRRCC1 / RFU, ARID1A / Fold change vs veh, ARID1A / RFU, ZNF146 / Fold change vs veh, ZNF146 / RFU, ZNF330 / Fold change vs veh, ZNF330 / RFU, GPN3 / Fold change vs veh, GPN3 / RFU, C9orf123 / Fold change vs veh, C9orf123 / RFU, N4BP2L2 / Fold change vs veh, N4BP2L2 / RFU, ARFIP1 / Fold change vs veh, ARFIP1 / RFU, FAM179B / Fold change vs veh, FAM179B / RFU, BCL10 / Fold change vs veh, BCL10 / RFU, UHRF1BP1L / Fold change vs veh, UHRF1BP1L / RFU, BET1 / Fold change vs veh, BET1 / RFU, CNOT2 / Fold change vs veh, CNOT2 / RFU, ZNF268 / Fold change vs veh, ZNF268 / Fold change vs veh, ZNF507 / RFU, DGCR2 / Fold change vs veh, DGCR2 / RFU, WDSUB1 / Fold change vs veh, WDSUB1 / Fold change vs veh, HSP90B1 /// MIR3652 / RFU, ADSS / Fold change vs veh, ADSS / RFU, GK / Fold change vs veh, GK / RFU, ZNF148 / Fold change vs veh, ZNF148 / RFU, TAF9 / Fold change vs veh, TAF9 / RFU, SLC1A5 / Fold change vs veh, SLC1A5 / RFU, SLMO2 / Fold change vs veh, SLMO2 / RFU, ABCC4 / Fold change vs veh, ABCC4 / RFU, LOC101060439 /// RAP1B / Fold change vs veh, LOC101060439 /// RAP1B / RFU, RFX7 / Fold change vs veh, RFX7 / RFU, GTPBP10 / Fold change vs veh, GTPBP10 / RFU, CNEP1R1 / Fold change vs veh, CNEP1R1 / RFU, BIVM-ERCC5 /// ERCC5 / Fold change vs veh, BIVM-ERCC5 /// ERCC5 / RFU, ILF3 / Fold change vs veh, ILF3 / RFU 11762660_at / Fold change /veh 11762660_at / RFU VCAN (11757783_s_at) / Fold change /veh VCAN (11757783_s_at) / RFU DDX43 (11728927_at) / Fold change /veh DDX43 (11728927_at) / RFU KRT8 (11758188_x_at) / Fold change /veh KRT8 (11758188_x_at) / RFU NKD1 (11759106_at) / Fold change /veh NKD1 (11759106_at) / RFU SRD5A1 (11742802_a_at) / Fold change /veh SRD5A1 (11742802_a_at) / RFU TPSAB1 /// TPSB2 (11721975_s_at) / Fold change /veh TPSAB1 /// TPSB2 (11721975_s_at) / RFU GSTM3 (11746129_a_at) / Fold change /veh GSTM3 (11746129_a_at) / RFU IL23R (11737362_x_at) / Fold change /veh IL23R (11737362_x_at) / RFU TMEM51 (11727254_a_at) / Fold change /veh TMEM51 (11727254_a_at) / RFU PIWIL2 (11732686_x_at) / Fold change /veh PIWIL2 (11732686_x_at) / RFU ORM1 (11744905_x_at) / Fold change /veh ORM1 (11744905_x_at) / RFU CCDC152 (11743942_at) / Fold change /veh CCDC152 (11743942_at) / RFU ECM1 (11717891_a_at) / Fold change /veh ECM1 (11717891_a_at) / RFU IL23R (11748794_a_at) / Fold change /veh IL23R (11748794_a_at) / RFU TNFAIP8L3 (11732012_x_at) / Fold change /veh TNFAIP8L3 (11732012_x_at) / RFU MBOAT4 (11741988_at) / Fold change /veh MBOAT4 (11741988_at) / RFU 11764193_at / Fold change /veh 11764193_at / RFU TMEM53 (11763286_at) / Fold change /veh TMEM53 (11763286_at) / RFU MAGEB2 (11727129_at) / Fold change /veh MAGEB2 (11727129_at) / RFU TMEM200A (11744735_a_at) / Fold change /veh TMEM200A (11744735_a_at) / RFU CCDC152 (11751479_a_at) / Fold change /veh CCDC152 (11751479_a_at) / RFU FAM211A (11726209_a_at) / Fold change /veh FAM211A (11726209_a_at) / RFU RGS16 (11746705_a_at) / Fold change /veh RGS16 (11746705_a_at) / RFU VCAN (11755009_s_at) / Fold change /veh VCAN (11755009_s_at) / RFU RHOB (11743442_s_at) / Fold change /veh RHOB (11743442_s_at) / RFU RGS16 (11720943_a_at) / Fold change /veh RGS16 (11720943_a_at) / RFU RGS16 (11720944_at) / Fold change /veh RGS16 (11720944_at) / RFU, VPS4B / Fold change vs veh, VPS4B / RFU, CREB1 / Fold change vs veh, CREB1 / RFU, DNAJC13 / Fold change vs veh, DNAJC13 / RFU, GNAQ / Fold change vs veh, GNAQ / RFU, CDK5R1 / Fold change vs veh, CDK5R1 / RFU, ZRANB3 / Fold change vs veh, ZRANB3 / RFU, CUL4A / Fold change vs veh, CUL4A / RFU, CCNY / Fold change vs veh, CCNY / RFU, UFL1 / Fold change vs veh, UFL1 / RFU, COG3 / Fold change vs veh, COG3 / RFU, DIAPH2 / Fold change vs veh, DIAPH2 / RFU, SKA2 / Fold change vs veh, SKA2 / RFU, AFF3 / Fold change vs veh, AFF3 / RFU, LMF1 / Fold change vs veh, LMF1 / RFU, IPO11 / Fold change vs veh, IPO11 / RFU, DFFB / Fold change vs veh, DFFB / RFU, FOXP1 / Fold change vs veh, FOXP1 / RFU, CARD8 / Fold change vs veh, CARD8 / RFU, STRN3 / Fold change vs veh, STRN3 / RFU, ADK / Fold change vs veh, ADK / RFU, RASSF2 / Fold change vs veh, RASSF2 / RFU, WIPF1 / Fold change vs veh, WIPF1 / RFU, LARP1B / Fold change vs veh, LARP1B / RFU, RASA1 / Fold change vs veh, RASA1 / RFU, RB1 / Fold change vs veh, RB1 / RFU, PPFIA1 / Fold change vs veh, PPFIA1 / RFU, MAT2A / Fold change vs veh, MAT2A / RFU, CCT5 / Fold change vs veh, CCT5 / RFU, WDR92 / Fold change vs veh, WDR92 / RFU, CUX1 / Fold change vs veh, CUX1 / RFU, TTC7A / Fold change vs veh, TTC7A / RFU, TMEM135 / Fold change vs veh, TMEM135 / RFU, DEPTOR / Fold change vs veh, DEPTOR / RFU, CPM / Fold change vs veh, CPM / RFU, DNAJB6 / Fold change vs veh, DNAJB6 / RFU, CACNA2D3 / Fold change vs veh, CACNA2D3 / RFU, DTX4 / Fold change vs veh, DTX4 / RFU, TFCP2 / Fold change vs veh, TFCP2 / RFU, GMCL1 /// GMCL1P1 / Fold change vs veh, GMCL1 /// GMCL1P1 / RFU, AEBP2 / Fold change vs veh, AEBP2 / RFU, SNHG1 /// SNORD22 /// SNORD25 /// SNORD26 /// SNORD27 /// SNORD28 /// SNORD29 /// SNORD31 / Fold change vs veh, SNHG1 /// SNORD22 /// SNORD25 /// SNORD26 /// SNORD27 /// SNORD28 /// SNORD29 /// SNORD31 / Fold change (Aza/veh), C12orf56 (ProbeSet 11735607_a_at) / Fold change (ACY-1035/veh), C12orf56 (ProbeSet 11735607_a_at) / Fold change (Aza/veh), FGFR1OP (ProbeSet 11751329_s_at) / Fold change (ACY-1035/veh), FGFR1OP (ProbeSet 11751329_s_at) / Fold change (Aza/veh), VPS36 (ProbeSet 11739960_a_at) / Fold change (ACY-1035/veh), VPS36 (ProbeSet 11739960_a_at) / RFU SYPL1 (11715823_x_at) / Fold change /veh SYPL1 (11715823_x_at) / RFU IGFBP7 (11715501_s_at) / Fold change /veh IGFBP7 (11715501_s_at) / RFU REEP3 (11722064_at) / Fold change /veh REEP3 (11722064_at) / RFU IGLL1 (11728026_x_at) / Fold change /veh IGLL1 (11728026_x_at): dose or concentration left out as unconfirmed
Settings: MV-4-11 cells, 48 hours

For Nc1ccc(-c2cccs2)cc1NC(=O)c1ccc2c(c1)cc(C1CC1)n2CCN1CCOCC1 [ACY-1035], the “Fold change /veh FAM211A (11726209_a_at)” value was 1.04.
